According to US20060210480A1, “Treatment of reduction of dysphagia” (priority 2005, published 2006):

How the values were obtained:
[1] = tested on: human cortical swallowing pathways; test: Ten-minute liquid swallowing task with taste solutions; TMS-evoked cortico-pharyngeal motor responses (Example 1); format: in vivo; settings: 8 healthy adult volunteers; 0.5 mM quinine hydrochloride swallowing task; immediately and throughout 60 minutes post-intervention; p<0.01
Procedure: An assessment was made as to the effects of different taste stimuli on human cortical swallowing pathways. The assessment was made upon 8 healthy adult volunteers (seven of which were male, the minimum age of the volunteers being 29 years).
Each volunteer performed a ten-minute, liquid swallowing task using three (previously titrated) different taste solutions. The three solutions utilised were sterile water (neutral taste), 10% glucose (sweet/pleasant taste), and 0.5 mM quinine hydrochloride (bitter/aversive taste). Solutions were randomised to separate studies at least 24 hours apart.
Transcranial magnetic stimulation was performed over the swallowing motor cortex, before and up to one hour after each swallow task in accordance with established protocols. Briefly, Single pulse (monophasic) transcranial stimulation (sTMS) of the cerebral cortex was achieved using a magnetic stimulator (a Magstim 200, manufactured by MAGSTIM Company Limited, Whitland, Wales) connected to a 70 mm outer diameter figure-of-8 coil (maximal output of 2.2 Tesla (T)), held in an A-P (Anterior-Posterior) direction, at an angle of 45° tangential to the scalp. […]
Cortico-pharyngeal motor responses were recorded from a swallowed intra-luminal catheter as a measure of cortical excitability. […]

swallowing response [2] = test: Ten-minute infusion of taste stimuli onto the taste receptors of the tongue; pharyngeal MEP (Example 2); format: in vivo, human; settings: volunteers; ten minute infusion to tongue taste receptors; taken over a 60 minute period from administration
Text: Confirmation of the suitability of […] tasting substances such as the alkaloid quinine to stimulate the swallowing response and thereby aid treatment or reduction of dysphagia was obtained from a second study measuring swallowing reflexes of volunteers receiving neutral, pleasant or aversive taste stimuli. Volunteers receive a ten minute infusion of neutral (water), pleasant (glucose) or aversive (quinine) taste stimuli administered such that they stimulated the taste receptors of the tongue.

swallowing response [3] = test: Ten-minute infusion of taste stimuli directly into the stomach; pharyngeal MEP (Example 3); format: in vivo, human; settings: volunteers; ten minute infusion administered directly to the stomach
Text: The ability of substances such as the […] tasting alkaloid quinine to stimulate the swallowing response when administered into the portion of the upper digestive tract below the mouth was in a third study measuring swallowing reflexes of volunteers receiving neutral, pleasant or aversive taste stimuli. Volunteers receive a ten minute infusion of neutral (water), pleasant (glucose) or aversive (quinine) taste stimuli administered directly into the volunteer's stomach.

In the case of `C=C[C@H]1C[N@@]2CC[C@H]1C[C@H]2[C@H](O)c1ccnc2ccc(OC)cc12` [quinine], the “maximum percentage change from base line in pharyngeal motor evoked potential (MEP) amplitude” value [1] is reported as 48±11%, the “increase in the amplitude of MEP compared with neutral tasting water or pleasant tasting glucose” value (swallowing response [2]) is reported as “greater increase” and the “increase in the swallowing response (measured by MEP)” value (swallowing response [3]) is reported as 39%.
